Four compounds from ChEMBL document CHEMBL1151993, “Oxylipins from Dracontium loretense” (J Nat Prod, 2009) can be followed below.

Active and inactive are the calls of the source. The calls are words filed in the database; no cut-off is given here.

In data set [1] the test system is PBMC. Kind of data set: Cytotoxicity in human PBMC cells at 100 uM after 48 hrs. Format: cell-based.
Data set [2] deals with PBMC. The data set can be described thus: Immunostimulatory activity in human PBMC assessed as reduction in cell proliferation at 100 uM after 48 hrs by [3H]thymidine incorporation assay relative to control. Format: functional, cell-based.
Data set [3] concerns PBMC. The data set can be described thus: Immunostimulatory activity in human PBMC assessed as cell activation at 10 uM after 48 hrs by [3H]thymidine incorporation assay relative to control. Format: functional, cell-based. Background: Dividing cells build labelled thymidine or BrdU into new DNA.

Regarding `CCCCCCCC[C@@H](O)[C@H](O)/C=C/C(O)CCCCC(=O)O` (relative stereo), the Activity entry in the data set with PBMC [1] was “Toxic”. Moreover, the outcome in the data set with PBMC [2] was inactive.
With `CCCCCCCC[C@H](O)[C@H](O)/C=C/C(O)CCCCC(=O)O` (relative stereo), the Activity result in the data set on PBMC [1] is on record as “Toxic”. Besides, the result in the data set with PBMC [2] was inactive. The outcome in the data set with PBMC [3] was Active.
Turning to `CC/C=C\C/C=C\[C@@H](O)[C@H](O)[C@@H](O)CCCCCCCC(=O)O` (relative stereo), the Activity entry in the data set with PBMC [1] is listed as “Toxic”. The outcome with PBMC [2] was inactive.
In the case of `CCCCCCCC[C@H](O)[C@@H](O)[C@H](O)/C=C\CCCCC(=O)O` (relative stereo), in the data set with PBMC [1], the Activity result is given as “Toxic”. In addition, in the data set with PBMC [2], the result was inactive.
